Data taken from patent US4189484A, “Antihypertensive quinazoline derivatives” (priority 1977, dated 1980).

Experiments:
[1] = system: spontaneously hypertensive rats (SHR); test: Antihypertensive effect, oral administration to spontaneously hypertensive rats (mean blood pressure and heart rate); format: in vivo, rat; settings: for Change in blood pressure after 3 hrs. from administration: Table 1; for Changes in blood pressure (BP) after oral administration / Changes in heart rate (HR) after oral administration: Table 2, male SHR, n=5, p.o.; for Changes in average blood pressures after administration: Table 3
Protocol: Antihypertensive effect was determined by oral administration of the test compound to spontaneously hypertensive rats (hereinafter referred to as SHR).
These SHR were anesthetized with ether and chronically embedded with a cannula for determination of blood pressure so that one end of the said cannula may be placed in abdominal aorta and the other end thereof may be projected out of dorsal neck. When rats regained their body weight before operation in more than 1 week from operation, the test compound was given. Determination was made by measuring a mean blood pressure and a heart rate under unanesthetized and unrestrained conditions with the cannula connected to an electronic recording system. The test compound was suspended in a 1% tragacanth gum solution to make up a concentration so as to be a volume of 5 ml./kg. and then orally given.

Adrenergic α-receptor = Adrenergic α-receptor blocking effect (inhibition of hypertensive action of i.v. adrenalin hydrochloride); format: in vivo, Wistar strain male rats; settings: relative to prazosin
Protocol: Wistar strain male rats, weighing 250-300 g., were used in this experiment. The rat was anesthetized with pentobarbital sodium and fitted in the right femoral artery with a cannula for determination of blood pressure and in the left femoral vein with another cannula for intravenous injection, the former cannula being connected to an electronic recording system to measure a blood pressure.
Adrenergic α-receptor blocking effect was determined upon whether a hypertensive action with intravenous injection of adrenalin hydrochloride at 0.3 or 1 μg./kg. may be reserved by pretreatment with the test compound.

in vivo = format: in vivo; settings: mouse, in vivo, po; mice
Protocol: (§1) ICR strain male mice, weighing 30-35 g., were deprived of food for 6 hours (water ad libitum) and then used in the experiment. Each group consisted of 8 animals. The test compound was suspended in a 1% tragacanth gum solution so as to be a volume of 40 ml./kg. and orally given. After administration, numbers of deceased animals, changes in body weight and other general states were observed or determined over 1 week.
(§2) Survived mice were autopsyed.

ICR strain male mice = test: in vivo; format: in vivo; settings: for No. of deceased animal: 8 animals per group, 1 week
Protocol: as §1, §2

SMILES | time of maximum antihypertensive effect from oral administration ([1]; SHR, p.o.) [h] | Change in blood pressure after 3 hrs. from administration ([1]; SHR, p.o., 1 mg./kg., 3 hrs.) [mmHg] | Change in blood pressure after 3 hrs. from administration ([1]; SHR, p.o., 10 mg./kg., 3 hrs.) [mmHg] | Changes in blood pressure (BP) after oral administration ([1]; 0.3 mg./kg., 1 hr.) [mm.Hg.] | Changes in heart rate (HR) after oral administration ([1]; 0.3 mg./kg., 1 hr.) [no/min.] | Changes in blood pressure (BP) after oral administration ([1]; 0.3 mg./kg., 3 hrs.) [mm.Hg.] | Changes in heart rate (HR) after oral administration ([1]; 0.3 mg./kg., 3 hrs.) [no/min.] | Changes in blood pressure (BP) after oral administration ([1]; 0.3 mg./kg., 6 hrs.) [mm.Hg.] | Changes in heart rate (HR) after oral administration ([1]; 0.3 mg./kg., 6 hrs.) [no/min.] | Changes in blood pressure (BP) after oral administration ([1]; 0.3 mg./kg., 24 hrs.) [mm.Hg.] | Changes in heart rate (HR) after oral administration ([1]; 0.3 mg./kg., 24 hrs.) [no/min.] | Changes in blood pressure (BP) after oral administration ([1]; 1 mg./kg., 1 hr.) [mm.Hg.] | Changes in heart rate (HR) after oral administration ([1]; 1 mg./kg., 1 hr.) [no/min.] | Changes in heart rate (HR) after oral administration ([1]; 1 mg./kg., 3 hrs.) [no/min.] | Changes in blood pressure (BP) after oral administration ([1]; 1 mg./kg., 6 hrs.) [mm.Hg.] | Changes in heart rate (HR) after oral administration ([1]; 1 mg./kg., 6 hrs.) [no/min.] | α-receptor blocking action as compared with the action of prazosin (Adrenergic α-receptor) | No. of deceased animal (ICR strain male mice; p.o., 1,250 mg./kg.) | No. of deceased animal (ICR strain male mice; p.o., 2,500 mg./kg.) | No. of deceased animal (ICR strain male mice; p.o., 5,000 mg./kg.) | other results
COc1cc2nc(N3CCN(C(=O)C=Cc4ccccc4)CC3)nc(N)c2cc1OC [Compound No. 1, 2-(4-Cinnamoylpiperazin-1-yl)-4-amino-6,7-dimethoxyquinazoline] | 3 to 6 | -18 | -53 | -14±5.1 | -5.3±3.9 | -16±3.3 | -3.8±7.4 | -19±1.9 | 0.3±5.9 | 4±4.3 | 3.9±7.1 | -20±1.6 | -4.8±4.1 | -1.5±4.7 | -27±4.1 | -7.9±2.7 | 1/10 | 0 | 0 | 0 | antihypertensive effect, dose dependence ([1]; SHR, p.o., 0.3-3 mg./kg., in words): correlated with a dose; Changes in blood pressure (BP) after oral administration ([1]; 1 mg./kg., 3 hrs.): -26±3.3 mm.Hg.; Changes in blood pressure (BP) after oral administration ([1]; 1 mg./kg., 24 hrs.): -2±1.2 mm.Hg.; Changes in heart rate (HR) after oral administration ([1]; 1 mg./kg., 24 hrs.): -0.5±3.2 no/min.; Changes in blood pressure (BP) after oral administration ([1]; 3 mg./kg., 1 hr.): -40±3.5 mm.Hg.; Changes in heart rate (HR) after oral administration ([1]; 3 mg./kg., 1 hr.): 6.9±5.4 no/min.; Changes in blood pressure (BP) after oral administration ([1]; 3 mg./kg., 3 hrs.): -35±4.4 mm.Hg.; Changes in heart rate (HR) after oral administration ([1]; 3 mg./kg., 3 hrs.): -1.7±5.5 no/min.; Changes in blood pressure (BP) after oral administration ([1]; 3 mg./kg., 6 hrs.): -35±3.5 mm.Hg.; Changes in heart rate (HR) after oral administration ([1]; 3 mg./kg., 6 hrs.): 10.0±8.3 no/min.; Changes in blood pressure (BP) after oral administration ([1]; 3 mg./kg., 24 hrs.): -4±4.3 mm.Hg.; Changes in heart rate (HR) after oral administration ([1]; 3 mg./kg., 24 hrs.): 19.5±7.2 no/min.; LD50 at 168 h (in vivo): > 5000 mg/kg; Body weight gain after 7 days (ICR strain male mice; p.o., 1,250 mg./kg.): +3.9 g.; Body weight gain after 7 days (ICR strain male mice; p.o., 2,500 mg./kg.): +4.0 g.; Body weight gain after 7 days (ICR strain male mice; p.o., 5,000 mg./kg.): +4.7 g.
COc1ccc(C=CC(=O)N2CCN(c3nc(N)c4cc(OC)c(OC)cc4n3)CC2)cc1 [Compound No. 8, 2-[4-(4-Methoxycinnamoyl)-piperazin-1-yl]-4-amino-6,7-dimethoxyquinazoline] | – | – | -25 | – | – | – | – | – | – | – | – | – | – | – | – | – | 1/100 | – | – | – | –
CCOc1ccc(C=CC(=O)N2CCN(c3nc(N)c4cc(OC)c(OC)cc4n3)CC2)cc1 [Compound No. 10, 2-[4-(4-Ethoxycinnamoyl)-piperazine-1-yl]-4-amino-6,7-dimethoxyquinazoline] | – | -19 | -53 | – | – | – | – | – | – | – | – | – | – | – | – | – | 1/100 | – | – | – | –
COc1cc2nc(N3CCN(C(=O)C=Cc4ccc5c(c4)OCO5)CC3)nc(N)c2cc1OC [Compound No. 16, 2-[4-(3,4-Methylenedioxycinnamoyl)-piperazin-1-yl]-4-amino-6,7-dimethoxyquinazoline] | – | – | -13 | – | – | – | – | – | – | – | – | – | – | – | – | – | 1/100 | – | – | – | –
COc1cc2nc(N3CCN(C(=O)c4ccco4)CC3)nc(N)c2cc1OC [Prazosin, reference compound] | 1 | – | – | -34±5.6 | 6.3±3.3 | -25±3.5 | 5.3±4.6 | -27±4.4 | 3.2±3.0 | -1±4.3 | 4.3±4.9 | -46±2.9 | 7.0±4.4 | 1.5±2.8 | -31±2.9 | -9.8±6.1 | – | 0 | 0 | 0 | antihypertensive effect, compound compared with prazosin ([1]; SHR, p.o., in words): approximately equal antihypertensive effect to that of the present quinazoline compound after 3 hours; Changes in blood pressure (BP) after oral administration ([1]; 1 mg./kg., 24 hrs.): -6±1.9 mm.Hg.; Changes in heart rate (HR) after oral administration ([1]; 1 mg./kg., 24 hrs.): -3.9±2.8 no/min.; Changes in blood pressure (BP) after oral administration ([1]; 3 mg./kg., 1 hr.): -50±6.5 mm.Hg.; Changes in heart rate (HR) after oral administration ([1]; 3 mg./kg., 1 hr.): 12.7±7.8 no/min.; Changes in blood pressure (BP) after oral administration ([1]; 3 mg./kg., 3 hrs.): -31±5.8 mm.Hg.; Changes in heart rate (HR) after oral administration ([1]; 3 mg./kg., 3 hrs.): 17.8±7.7 no/min.; Changes in blood pressure (BP) after oral administration ([1]; 3 mg./kg., 6 hrs.): -34±6.2 mm.Hg.; Changes in heart rate (HR) after oral administration ([1]; 3 mg./kg., 6 hrs.): 9.4±8.3 no/min.; Changes in blood pressure (BP) after oral administration ([1]; 3 mg./kg., 24 hrs.): -3± 5.8 mm.Hg.; Changes in heart rate (HR) after oral administration ([1]; 3 mg./kg., 24 hrs.): 26.8±8.3 no/min.; Changes in average blood pressures after administration ([1]; SHR, p.o., 1 mg./kg., 1 hr.): -46 mmHg; Changes in average blood pressures after administration ([1]; SHR, p.o., 1 mg./kg., 3 hrs.): -37 mmHg; Changes in average blood pressures after administration ([1]; SHR, p.o., 1 mg./kg., 6 hrs.): -31 mmHg; Changes in average blood pressures after administration ([1]; SHR, p.o., 1 mg./kg., 24 hrs.): -6 mmHg; Changes in average blood pressures after administration ([1]; SHR, p.o., 3 mg./kg., 1 hr.): -50 mmHg; Changes in average blood pressures after administration ([1]; SHR, p.o., 3 mg./kg., 3 hrs.): -31 mmHg; Changes in average blood pressures after administration ([1]; SHR, p.o., 3 mg./kg., 6 hrs.): -34 mmHg; Changes in average blood pressures after administration ([1]; SHR, p.o., 3 mg./kg., 24 hrs.): -3 mmHg
COc1cc2nc(N3CCN(C(=O)C=Cc4ccco4)CC3)nc(N)c2cc1OC [compound 28, 2-{4-[3-(Furan-2-yl)-acryloyl]-piperazin-1-yl}-4-amino-6,7-dimethoxyquinazoline] | – | – | – | – | – | – | – | – | – | – | – | – | – | – | – | – | – | 0 | 0 | 0 | Changes in average blood pressures after administration ([1]; SHR, p.o., 1 mg./kg., 1 hr.): -51 mmHg; Changes in average blood pressures after administration ([1]; SHR, p.o., 1 mg./kg., 3 hrs.): -31 mmHg; Changes in average blood pressures after administration ([1]; SHR, p.o., 1 mg./kg., 6 hrs.): -38 mmHg; Changes in average blood pressures after administration ([1]; SHR, p.o., 1 mg./kg., 24 hrs.): -11 mmHg; Changes in average blood pressures after administration ([1]; SHR, p.o., 3 mg./kg., 1 hr.): -74 mmHg; Changes in average blood pressures after administration ([1]; SHR, p.o., 3 mg./kg., 3 hrs.): -38 mmHg; Changes in average blood pressures after administration ([1]; SHR, p.o., 3 mg./kg., 6 hrs.): -43 mmHg; Changes in average blood pressures after administration ([1]; SHR, p.o., 3 mg./kg., 24 hrs.): -15 mmHg; LD50 at 168 h (in vivo): > 5000 mg/kg; Body weight gain after 7 days (ICR strain male mice; p.o., 1,250 mg./kg.): +2.6 g.; Body weight gain after 7 days (ICR strain male mice; p.o., 2,500 mg./kg.): +3.0 g.; Body weight gain after 7 days (ICR strain male mice; p.o., 5,000 mg./kg.): +0.2 g.
